This is an account of results in patent publication US20120040898A1, “PHARMACEUTICAL COMPOSITIONS” (TAISHO PHARMACEUTICAL CO., LTD, priority 2009, published 2012).

Structures can show the parent of a compound that is named as a salt.

What all share (format): in vivo
Experiment [1] deals with Zucker fatty rats. Briefly: Combination treatment of compound A and acarbose in diabetic rats (soluble starch loading). The note with it: fasted Zucker fatty rats; single oral dose compound A 1 mg/kg, acarbose 1 mg/kg, alone or combined; soluble starch 2 g/kg one minute later; up to 120 minutes; mean ± standard error. As for the experimental part:
Six male Zucker fatty rats (11-week old) were fasted and orally administered with single doses of compound A (1 mg/kg) and an α-glucosidase inhibitor, acarbose (1 mg/kg), either alone or in combination. […] Wako Pure Chemical Industries, Ltd.)

Experiment [2] concerns C57BL mice. Kind of experiment: Combination treatment of compound A and glimepiride in normal mice. To be noted: normoglycemic C57BL mice, non-fasting; single oral dose compound A 10 mg/kg, glimepiride 0.5 mg/kg, alone or combined; up to 3 hours; mean ± standard error. As for the experimental part: (§1) CLEA Japan, Inc.) and 10 female C57BL mice/group (normal mice; 4-week old; CLEA Japan, Inc.) were orally administered with single doses of compound A (10 mg/kg) and an insulin secretagogue, glimepiride (0.5 mg/kg; SIGMA-ALDRICH JAPAN K.K.), either alone or in combination. Blood was taken from the tail vein of each mouse at specified time intervals and plasma glucose levels were measured by the GDH electrode method with a self-testing glucose measuring instrument (Glutest Neo Super; […] CO., LTD.)

Experiment [3] concerns high-fat diet loaded mice with STZ-induced diabetes mellitus. Kind of experiment: Combination treatment of compound A and glibenclamide in diabetic mice. The note with it: high-fat diet STZ diabetic ICR mice, non-fasting; single oral dose compound A 1 mg/kg, glibenclamide 10 mg/kg, alone or combined; up to 8 hours; mean ± standard error. The text has this: After 3 weeks a high-fat diet (D12492 of Research Diets, Inc.) feeding, ICR mice (CHARLES RIVER LABORATORIES JAPAN, INC.) were intraperitoneally administered with streptozocin (SIGMA-ALDRICH JAPAN K.K.; hereinafter abbreviated as STZ) to induce diabetes. […] SIGMA-ALDRICH JAPAN K.K.), either alone or in combination. Blood was taken from the tail vein of each mouse at specified time intervals and centrifuged to collect plasma. […] Wako Pure Chemical Industries, Ltd.)

The subject of experiment [4] is Zucker fatty rats. Kind of experiment: Combination treatment of compound A and vildagliptin in diabetic rats (oral glucose loading). The note with it: fasted Zucker fatty rats; single oral dose compound A 1 mg/kg, vildagliptin 3 mg/kg, alone or combined; glucose 2 g/kg one hour later; up to 120 minutes; mean ± standard error. As for the experimental part:
One hour after the administration, the rats were orally administered with glucose solutions (2 g/kg); blood was taken from the tail vein of each rat at specified time intervals and centrifuged to collect plasma. Plasma glucose levels were measured by mutarotase-GOD method with a glucose assay kit (Glucose C2 Test Wako; Wako Pure Chemical Industries, Ltd.)

Experiment [5] concerns KKAy mice. Kind of experiment: Chronic combination treatment of compound A and glimepiride in diabetic mice. The note with it: non-fasting, compound A 0.03% mixed diet, glimepiride 0.5 mg/kg once daily, alone or combined, one hour after drug administration, mean ± standard error. As for the experimental part: Seven or eight female KKAy mice/group (4-week old; CLEA JAPAN, Inc.) were orally administered with repeated doses of compound A (0.03% mixed diet; ad libitum) and an insulin secretagogue, glimepiride (0.5 mg/kg, once daily; SIGMA-ALDRICH JAPAN K.K.), either alone or in combination, for 8 weeks. […] Plasma glucose levels were measured by the GDH electrode method with a self-testing glucose measuring instrument (Glutest Neo Super; […]

Experiment [6] concerns high-fat diet loaded mice with STZ-induced diabetes mellitus. Kind of experiment: Combination treatment of compound A and glipizide in diabetic mice. The note with it: high-fat diet STZ diabetic ICR mice, non-fasting; single oral dose compound A 1 mg/kg, glipizide 10 mg/kg, alone or combined; up to 8 hours; mean ± standard error. As for the experimental part:
After 3 weeks a high-fat diet (D12492 of Research Diets, Inc.) feeding, ICR mice (CHARLES RIVER LABORATORIES JAPAN, INC.) were intraperitoneally administered streptozocin (SIGMA-ALDRICH JAPAN K.K.; hereinafter abbreviated as STZ) to induce diabetes. […] SIGMA-ALDRICH JAPAN K.K.), either alone or in combination. Blood was taken from the tail vein of each mouse at specified time intervals and plasma glucose levels were measured by GOD colorimetry with a self-testing glucose measuring instrument (Medisafe Mini GR-102; TERUMO CORPORATION, Japan).

For experiment [7], the system named is Zucker fatty rats. Briefly: Combination treatment of compound A and miglitol in diabetic rats (soluble starch loading). The note with it: fasted Zucker fatty rats; single oral dose compound A 0.5 mg/kg, miglitol 3 mg/kg, alone or combined; soluble starch 2 g/kg one minute later; up to 120 minutes; mean ± standard error. As for the experimental part: Six male Zucker fatty rats (9-week old) were fasted and orally administered with single doses of compound A (0.5 mg/kg) and an α-glucosidase inhibitor, miglitol (3 mg/kg), either alone or in combination. One minute after the administration, the rats were orally administered with soluble starch solutions (2 g/kg); blood was taken from the tail vein of each rat at specified time intervals and centrifuged to collect plasma. Plasma glucose levels were measured by mutarotase-GOD method with a glucose assay kit (Glucose C2 Test Wako; Wako Pure Chemical Industries, Ltd.)

Experiment [8] deals with db/db mice. Kind of experiment: Chronic combination treatment of compound A and metformin hydrochloride in diabetic mice. To be noted: mean ± standard error; for Change in GHb (%) / Change in plasma IRI level: 27 days; for Fasting plasma glucose level: after 27 days, fasted 16 hours; for Change in plasma IRI level: non-fasting.
The subject of experiment [9] is Zucker fatty rats. Kind of experiment: Combination treatment of compound A and voglibose in diabetic rats (soluble starch loading). To be noted: fasted Zucker fatty rats; single oral dose compound A 1 mg/kg, voglibose 0.1 mg/kg, alone or combined; soluble starch 2 g/kg one minute later; up to 120 minutes; mean ± standard error. As for the experimental part: Six male Zucker fatty rats (10-week old) were fasted and orally administered with single doses of compound A (1 mg/kg) and an α-glucosidase inhibitor, voglibose (0.1 mg/kg), either alone or in combination. […] Wako Pure Chemical Industries, Ltd.)

In experiment [10] the test system is Zucker fatty rats. Briefly: Combination treatment of compound A and sitagliptin in diabetic rats (oral glucose loading). To be noted: fasted Zucker fatty rats; single oral dose compound A 1 mg/kg, sitagliptin 0.3 mg/kg, alone or combined; glucose 2 g/kg one hour later; up to 120 minutes; mean ± standard error. On the procedure:
Eight male Zucker fatty rats/group (10-week old) were fasted and orally administered with single doses of compound A (1 mg/kg) and a DPP-IV inhibitor, sitagliptin (0.3 mg/kg), either alone or in combination. […] Wako Pure Chemical Industries, Ltd.)

Experiment [11] has as its system rats with STZ-induced diabetes mellitus. Kind of experiment: Combination treatment of compound A and insulin in diabetic rats. To be noted: STZ diabetic SD rats, non-fasting; single oral dose compound A 1 mg/kg, subcutaneous slow-release insulin implant (one pellet), alone or combined; up to 8 hours; mean ± standard error. The text has this: SD rats (7-week old; CHARLES RIVER LABORATORIES JAPAN, INC.) were intraperitoneally administered with streptozocin (SIGMA-ALDRICH JAPAN K.K.; hereinafter abbreviated as STZ) to induce diabetes. The rats with STZ-induced diabetes mellitus (8-week old) underwent subcutaneous implant of a slow-release insulin (one pellet of […] Canada, Inc.) or sham operation. […] Blood was taken from the tail vein of each rat at specified time intervals and centrifuged to collect plasma. […] Wako Pure Chemical Industries, Ltd.)

Experiment [12] deals with KKAy mice. Briefly: Combination treatment of compound A and glimepiride in diabetic mice. To be noted: non-fasting, single oral dose compound A 10 mg/kg, glimepiride 0.5 mg/kg, alone or combined, up to 3 hours, mean ± standard error. As for the experimental part:
as §1

Experiment [13] relates to db/db mice. Kind of experiment: Chronic combination treatment of compound A and pioglitazone in diabetic mice. The note with it: compound A 3 mg/kg, pioglitazone 10 mg/kg, once daily oral, alone or combined, 27 days, mean ± standard error; for Change in GHb (%): after minus before; for Change in plasma IRI level: non-fasting.
[14] abbreviates: metformin hydrochloride 100 mg/kg, alone or with compound A 3 mg/kg.
Where [15] appears, read: metformin hydrochloride 300 mg/kg, alone or with compound A 3 mg/kg.

On to `C[C@H]1O[C@H](O[C@H]2[C@H](O)[C@@H](O)[C@@H](O[C@H]3[C@H](O)[C@@H](O)C(O)O[C@@H]3CO)O[C@@H]2CO)[C@H](O)[C@@H](O)[C@@H]1N[C@H]1C=C(CO)[C@@H](O)[C@H](O)[C@H]1O` (stereo partly drawn) [Acarbose, acarbose], for which, in experiment [1], the “Δ plasma glucose AUC” value worked out at 10192.8 ± 913.6 mg·min/dL.

Turning to `CCOc1ccc(Cc2cc([C@@H]3S[C@H](CO)[C@@H](O)[C@H](O)[C@H]3O)c(OC)cc2C)cc1` [Compound A, (1S)-1,5-anhydro-1-[5-(4-ethoxybenzyl)-2-methoxy-4-methylphenyl]-1-thio-D-glucitol], the “Δ plasma glucose AUC” value in experiment [2] was -4.2 ± 8.5 mg·h/dL; in experiment [3], -130.1 ± 164.9 mg·h/dL; in [4], 11690.1 ± 807.9 mg·min/dL; in experiment [1], 9861.6 ± 1076.0 mg·min/dL; in experiment [6], -310.3 ± 157.2 mg·h/dL; in experiment [7], 11655.9 ± 1021.8 mg·min/dL. Also, the “Δ plasma glucose AUC” value in [9] was 10940.4 ± 952.7 mg·min/dL; in experiment [10], 11239.9 ± 617.8 mg·min/dL; in experiment [12], -83.0 ± 14.6 mg·h/dL. The “Plasma glucose level at 4 wk of administration” value in experiment [5] came to 154.8 ± 5.9 mg/dL. In addition, the “Plasma glucose level at 8 wk of administration” value in experiment [5] came to 168.6 ± 2.2 mg/dL. Further, the “Change in GHb (%)” value in [8] (compound A 3 mg/kg once daily oral, alone, GHb after minus before) worked out at 0.14 ± 0.39%; in experiment [13], 3.15 ± 0.16%. The “Fasting plasma glucose level” value in [8] (compound A 3 mg/kg once daily oral, alone) was 275.0 ± 28.7 mg/dL. Moreover, the “Change in plasma IRI level” value was -5.01 ± 2.11 ng/mL in experiment [8] (compound A 3 mg/kg once daily oral, alone, after minus before) and -27.81 ± 4.41 ng/dL in [13]. In addition, in experiment [11], the “Plasma glucose AUC” value stood at 3983.4 ± 194.5 mg·h/dL. Moreover, the “Non-fasting plasma glucose level” value in experiment [13] is listed as 607.9 ± 21.6 mg/dL.

`COc1ccc(Cl)cc1C(=O)NCCc1ccc(S(=O)(=O)NC(=O)NC2CCCCC2)cc1` [Glibenclamide, glibenclamide]: the “Δ plasma glucose AUC” value in experiment [3] turned out to be 140.3 ± 107.2 mg·h/dL.

For the molecule `CCC1=C(C)CN(C(=O)NCCc2ccc(S(=O)(=O)NC(=O)N[C@H]3CC[C@H](C)CC3)cc2)C1=O` [Glimepiride, glimepiride], the “Δ plasma glucose AUC” value in experiment [2] is -104.0 ± 9.3 mg·h/dL. In addition, in experiment [5], the “Plasma glucose level at 4 wk of administration” value was 137.6 ± 13.3 mg/dL and the “Plasma glucose level at 8 wk of administration” value came out at 160.4 ± 8.2 mg/dL. Besides, in [12], the “Δ plasma glucose AUC” value was -118.6 ± 20.2 mg·h/dL.

With `CN(C)C(=N)N=C(N)N` [Metformin hydrochloride, metformin hydrochloride], the entries for the “Fasting plasma glucose level” value in experiment [8] (setting [14]) and in experiment [8] (setting [15]) were 378.3 ± 33.4 mg/dL and 254.0 ± 24.7 mg/dL, respectively. The “Change in GHb (%)” value in experiment [8] (metformin hydrochloride 100 mg/kg, alone or with compound A 3 mg/kg, oral) is 2.08 ± 0.33%; in experiment [8] (metformin hydrochloride 300 mg/kg, alone or with compound A 3 mg/kg, oral), 1.70 ± 0.23%. Also, the “Change in plasma IRI level” value in experiment [8] (setting [14]) was -9.81 ± 0.91 ng/mL; in experiment [8] (setting [15]), -7.36 ± 1.29 ng/mL.

Consider `OCCN1C[C@H](O)[C@@H](O)[C@H](O)[C@H]1CO` [Miglitol, miglitol], for which, in [7], the “Δ plasma glucose AUC” value was found to be 8909.4 ± 1390.0 mg·min/dL.

As to `CCc1ccc(CCOc2ccc(CC3SC(=O)NC3=O)cc2)nc1` (stereo not drawn) [Pioglitazone, pioglitazone], in experiment [13], the “Change in GHb (%)” value was 3.04 ± 0.36%, the “Non-fasting plasma glucose level” value turned out to be 555.2 ± 56.9 mg/dL and the “Change in plasma IRI level” value was -43.29 ± 3.83 ng/dL.

Take `N[C@@H](CC(=O)N1CCn2c(nnc2C(F)(F)F)C1)Cc1cc(F)c(F)cc1F` [Sitagliptin, sitagliptin]: the “Δ plasma glucose AUC” value in [10] was found to be 13881.4 ± 1292.9 mg·min/dL.

`OCC(CO)N[C@H]1C[C@](O)(CO)[C@@H](O)[C@H](O)[C@H]1O` [Voglibose, voglibose]: the “Δ plasma glucose AUC” value in experiment [9] turned out to be 12395.5 ± 543.0 mg·min/dL.
